Values quoted from earlier work as cited in patent US6090852A, “Substituted alpha-aminosulphonyl-acetohydroxamic acids as therapeutic agents” (Pfizer Inc, priority 1998, dated 2000).

Tested on: human ovarian carcinoma xenografts
Settings: mice carrying human ovarian carcinoma xenografts; Cancer Res., 1993, 53, 2087

## CNC(=O)[C@H](Cc1ccccc1)NC(=O)[C@H](CC(C)C)[C@H](CSc1cccs1)C(=O)NO [BB-94]
  survival: prolong the survival
  tumour burden: decrease the tumour burden
